Data on 21 compounds can be found in patent publication US8623347B2 (priority 2008, dated 2014).

For series [1], the system named is LCMV Armstrong strain (Arm53b). In words: organism not typed. Format: cell-based. The conditions noted are these: for pEC50: Vero.
For the next series, the system named is LCMV S RNA and NP mRNA. Format: cell-based.
In series [2] the test system is LCMV NP and L proteins (replication and transcription of RNA analog). Format: cell-based.
For another series, the system named is LCMV. The conditions noted are these: cited from earlier work.
Where [3] appears, read: read-out: 50% effective concentration (EC50).
The mark [4] stands for this setting: read-out: Activity (EC50 class).

pEC50: −log10 of the molar value. Where two headings read alike, the source gives them in different places.

For the compound `c1ccc2[nH]c(-c3nc4ccccc4[nH]3)nc2c1` [Compound 1, 1H, 1′H-[2,2′]Bibenzoimidazolyl], in series [1], the “screening result in compound library screen” value is listed as “hit”. Besides, the pEC50 in series [1] (setting [3]) is 7.10; in series [1] (setting [4]), > 6.00. In addition, in the series on LCMV S RNA and NP mRNA, the “synthesis of viral S RNA and NP mRNA relative to untreated controls” value is recorded as “dramatically suppressed”. For the same compound, the CAT reporter activity result in series [2] is “No CAT activity was observed”. In the series “in vitro”, the CC50 was > 25 µM.
As for `Cc1cc2nc(-c3nc4cc(C)c(C)cc4[nH]3)[nH]c2cc1C` [Compound 2, 5,6,6′,6′-Tetramethyl-1H, 1′H-[2,2′]bibenzoimidazolyl], the pEC50 in series [1] (setting [4]) is 5.00 to 6.00.
As for `Cn1c(-c2nc3ccccc3n2C)nc2ccccc21` [Compound 3, 1,1′-Dimethyl-1H,1′H-[2,2′]bibenzoimidazolyl], the pEC50 in series [1] (setting [4]) was < 4.60.
The same measure, in the same setting: the value for `O=[N+]([O-])c1ccc2nc(-c3nc4ccc([N+](=O)[O-])cc4[nH]3)[nH]c2c1` [Compound 5, 6,6′-Dinitro-1H,1′H-[2,2′]bibenzoimidazolyl] was < 4.60.
`Fc1cccc2[nH]c(-c3nc4c(F)cccc4[nH]3)nc12` [Compound 6, 4,4′-Difluoro-1H,1′H-[2,2′]bibenzoimidazolyl]: the results for the pEC50 in series [1] (setting [3]) and in series [1] (setting [4]) were 8.22 and > 6.00, respectively.
In the case of `Fc1ccc2[nH]c(-c3nc4cc(F)ccc4[nH]3)nc2c1` [Compound 7, 5,5′-Difluoro-1H,1′H-[2,2′]bibenzoimidazolyl], the pEC50 in series [1] (setting [3]) was 7.20; in series [1] (setting [4]) it was > 6.00.
Consider `Clc1ccc2[nH]c(-c3nc4cc(Cl)ccc4[nH]3)nc2c1` [Compound 8, 5,5′-Dichloro-1H,1′H-[2,2′]bibenzoimidazolyl], for which the pEC50 in series [1] (setting [4]) was 5.00 to 6.00.
Same read-out and setting: the value for `Brc1ccc2[nH]c(-c3nc4cc(Br)ccc4[nH]3)nc2c1` [Compound 9, 5,5′-Dibromo-1H,1′H-[2,2′]bibenzoimidazolyl] was 5.00 to 6.00.
Same read-out and setting: for `Cc1cccc2[nH]c(-c3nc4c(C)cccc4[nH]3)nc12` [Compound 10, 4,4′-Dimethyl-1H,1′H-[2,2′]bibenzoimidazolyl] the value was < 4.60.
Still for that read-out and setting: the value for `Cc1ccc2[nH]c(-c3nc4cc(C)ccc4[nH]3)nc2c1` [Compound 11, 5,5′-Dimethyl-1H,1′H-[2,2′]bibenzoimidazolyl] was < 4.60; that for `COc1cccc2[nH]c(-c3nc4c(OC)cccc4[nH]3)nc12` [Compound 12, 4,4′-Dimethoxy-1H,1′H-[2,2′]bibenzoimidazolyl] was < 4.60; that for `COc1ccc2[nH]c(-c3nc4cc(OC)ccc4[nH]3)nc2c1` [Compound 13, 5,5′-Dimethoxy-1H,1′H-[2,2′]bibenzoimidazolyl] was 4.60 to 5.00.
On to `COC(=O)c1cccc2[nH]c(-c3nc4c(C(=O)OC)cccc4[nH]3)nc12` [Compound 14, 1H,1′H-[2,2′]Bibenzoimidazolyl-4,4′-dicarboxylic acid dimethyl ester], for which the pEC50 in series [1] (setting [4]) was < 4.60.
Turning to `COC(=O)c1ccc2[nH]c(-c3nc4cc(C(=O)OC)ccc4[nH]3)nc2c1` [Compound 15, 1H,1′H-[2,2′]Bibenzoimidazolyl-5,5′-dicarboxylic acid dimethyl ester], the pEC50 in series [1] (setting [4]) is < 4.60.
`c1ccc(-c2cccc3[nH]c(-c4nc5c(-c6ccccc6)cccc5[nH]4)nc23)cc1` [Compound 16, 4,4′-Diphenyl-1H,1′H-[2,2′]bibenzoimidazolyl]: the melting point is 247 to 250 °C (dec.). Moreover, the pEC50 in series [1] (setting [4]) was < 4.60.
In the case of `Fc1ccc2[nH]c(-c3nc4c(F)c(F)ccc4[nH]3)nc2c1F` [Compound 17, 4,5,4′,5′-Tetrafluoro-1H,1′H-[2,2′]bibenzoimidazolyl], in series [1] (setting [4]), the pEC50 is > 6.00.
The same measure, in the same setting: for `Fc1cc(F)c2nc(-c3nc4c(F)cc(F)cc4[nH]3)[nH]c2c1` [Compound 18, 4,6,4′,6′-Tetrafluoro-1H,1′H-[2,2′]bibenzoimidazolyl] the value was > 6.00; for `Fc1cc2nc(-c3nc4cc(F)c(F)cc4[nH]3)[nH]c2cc1F` [Compound 19, 5,6,5′,6′-Tetrafluoro-1H,1′H-[2,2′]bibenzoimidazolyl], > 6.00.
Same read-out and setting: for `c1cnc2nc(-c3nc4ncccc4[nH]3)[nH]c2c1` [Compound 20, 1H,1′H-[2,2′]Bi[imidazo[4,5 b]pyridinyl]] the value was > 6.00.
On to `c1cc2nc(-c3nc4ccncc4[nH]3)[nH]c2cn1` [Compound 21, 3H,3′H-[2,2′]Bi[imidazo[4,5 c]pyridinyl]], for which the melting point is > 300 °C. Further, the pEC50 in series [1] (setting [4]) is 4.60 to 5.00.
For the compound `NC(=O)c1ncn([C@@H]2O[C@H](CO)[C@@H](O)[C@H]2O)n1` [ribavirin], the “antiviral activity against LCMV in vitro” value in the series with LCMV is listed as “limited antiviral activity”.

As usually defined, the melting point is the temperature, or range, at which the solid turns liquid.
